Assay results from patent publication US10221168B1, “Small-compound enhancers for functional O-mannosylation of alpha-dystroglycan, and uses thereof” (priority 2015, dated 2019).

Tested on: FOG of α-DG on the cell surfaces
Experiment: Cell-based HTS/HCS assay, IIH6 antibody as probe (EC1.5)
Conditions: concentration of the compound required to enhance the FOG of α-DG by 50% over the controls; cell-based assays in vitro
Excerpt: Protein glycosylation is a multiple-step process that requires a large number of proteins in the secretory pathway of the cells. Thus we chose cell-based assay because our goal is to identify enhancer the FOG of α-DG on the cell surfaces. The assay system is HTS/HCS friendly and can adapt to various cell lines including myotubes as well as various readout methods including AlphaScreen, fluorescence density and HCS/fluorescence imaging. The standard operation protocol (SOP) for adhesion cells is described below and the FIG. 1 illustrates the assay process using myoblasts as the controls and screening cells and the IIH6 antibody as the probe. Other adhesion cells such CHO (Chinese hamster ovary) cell line can be implemented into this assay by simply removing the differentiation step.
Cell cultures: All cells are cultured at 37° C., 5% CO2, in appropriate media (F-12 for epithelial cells and DMEM for myoblasts) supplement with 10-20% fetal calf serum (FCS) and 1% antibiotics. […] The cells will be detached with trypsin EDTA and suspended in the cell culture media. The cells will be counted and seeded into the multiple-well plates as desired. Myotubes formation: When the myoblasts reach confluence, change the growth media to differential media (DEME with 2% horse serum) and incubate for 4-5 days.
The cells were fixed, permeablized, and then blocked with 10% BSA in PBS for 1 hour. […] After washing the cells with PBS for 2 times, the DAPI was used to stain the cells for 15 mins and wash 3 times with PBS. The images were captured with an inverted Olympus fluorescent microscope. For small compound localization experiment, the cells are incubated with the biotin conjugated compounds and then the cells were washed and incubated with streptavidin-Dye and then images will be captured to see the location of the compound-target-protein.
H, EC1.5<5 μM; M, EC1.5-20 μM; L, EC1.5 20-50 μM; VL, EC1.5>50 μM.

Row | Structure (SMILES) | Activity (EC1.5)
1 | CCC(c1nnnn1Cc1cccs1)N1CCN(c2nc3ccc(Cl)cc3s2)CC1 (stereo not shown) [Compound 15, 6-chloro-2-(4-(1-(1-(thiophen-2-ylmethyl)-1H-tetrazol-5-yl)propyl)piperazin-1-yl)benzothiazole] | M (EC1.5-20 μM)
2 | CCC(c1nnnn1Cc1cccs1)N1CCN(c2nc3ccc(C)cc3s2)CC1 (stereo not shown) [Compound 16, 6-methyl-2-(4-(1-(1-(thiophen-2-ylmethyl)-1H-tetrazol-5-yl)propyl)piperazin-1-yl)benzothiazole] | L (EC1.5 20-50 μM)
3 | CCC(c1nnnn1Cc1cccs1)N1CCN(c2nc3ccc(-c4ccccc4)cc3s2)CC1 (stereo not shown) [Compound 17, 6-phenyl-2-(4-(1-(1-(thiophen-2-ylmethyl)-1H-tetrazol-5-yl)propyl)piperazin-1-yl)benzothiazole] | VL (EC1.5>50 μM)
4 | CCC(c1nnnn1Cc1cccs1)N1CCN(c2nc3ccc(NC(=O)c4ccccc4Cl)cc3s2)CC1 (stereo not shown) [Compound 18, 2-chloro-N-(2-(4-(1-(1-(thiophen-2-ylmethyl)-1H-tetrazol-5-yl)propyl)piperazin-1-yl)benzothiazol-6-yl)benzamide] | VL (EC1.5>50 μM)
5 | CCC(c1nnnn1Cc1cccs1)N1CCN(c2nc3ccc(NC(=O)c4ccccc4C)cc3s2)CC1 (stereo not shown) [Compound 19, 2-methyl-N-(2-(4-(1-(1-(thiophen-2-ylmethyl)-1H-tetrazol-5-yl)propyl)piperazin-1-yl)benzothiazol-6-yl)benzamide] | VL (EC1.5>50 μM)
6 | CCC(c1nnnn1Cc1cccs1)N1CCN(c2nc3cc(OC)c(OC)c(OC)c3s2)CC1 (stereo not shown) [Compound 20, 5.6.7-trimethaxy-2-(4-(1-(1-(thiophen-2-ylmethyl)-1H-tetrarol-5-yl)propyl)piperazin-1-yl)benzothiazole] | M (EC1.5-20 μM)
7 | CCC(c1nnnn1Cc1cccs1)N1CCN(c2nc3cccc(F)c3s2)CC1 (stereo not shown) [Compound 21, 7-fluoro-2-(4-(1-(1-(thiophen-2-ylmethyl)-1H-tetrazol-5-yl)propyl)piperazin-1-yl)benzothiazole] | H (EC1.5<5 μM)
8 | CCC(c1nnnn1Cc1cccs1)N1CCN(c2nc3c([N+](=O)[O-])cccc3s2)CC1 (stereo not shown) [Compound 22, 4-nitro-2-(4-(1-(1-(thiophen-2-ylmethyl)-1H-tetrazol-5-yl)propyl)piperazin-1-yl)benzothiazole] | L (EC1.5 20-50 μM)
9 | CCC(c1nnnn1Cc1cccs1)N1CCN(c2nc3c(N)cccc3s2)CC1 (stereo not shown) [Compound 23, 4-aminn-2-(4-(1-(1-(thiophen-2-ylmethyl) 1H-tetrazol-5-yl)propyl)piperazin-1-yl)benzothiazole] | M (EC1.5-20 μM)
10 | CCC(c1nnnn1Cc1cccs1)N1CCN(c2nc3cccnc3s2)CC1 (stereo not shown) [Compound 24, 2-(4-(1-(1-(thiophen-2-ylmethyl)-1H-tetrazol-5-yl)propyl)piperazin-1-yl)thiazolo[5,4-b]pyridine] | M (EC1.5-20 μM)
11 | CCC(c1nnnn1Cc1cccs1)N1CCN(c2nc3cc(F)ccc3s2)CC1 (stereo not shown) [Compound 25, 5-fluoro-2-(4-(1-(1-(thiophen-2-ylmethyl)-1H-tetrazol-5-yl)propyl)piperazin-1-yl)benzothiazole] | L (EC1.5 20-50 μM)
12 | CCC(c1nnnn1Cc1cccs1)N1CCN(c2nc3cccc(C(F)(F)F)c3s2)CC1 (stereo not shown) [Compound 26, 2-(4-(1-(1-(thiophen-2-ylmethyl)-1H-tetrazol-5-yl)propyl)piperazin-1-yl)-7-(trifluoramethyl)benzothiazole] | L (EC1.5 20-50 μM)
13 | CCC(NCCNc1nc2cccc(F)c2s1)c1nnnn1Cc1cccs1 (stereo not shown) [Compound 27, N^1-(7-fluorobenzothiazol-2-yl)-N^2-(1-(1-(thiophen-2-ylmethyl)-1H-tetrazol-5-yl)propyl)ethane-1,2-diamine] | M (EC1.5-20 μM)
14 | CCC(c1nnnn1Cc1cccs1)N1CCN(c2nc3cc([N+](=O)[O-])ccc3s2)CC1 (stereo not shown) [Compound 28, 5-nitro-2-(4-(1-(1-(thiophen-2-ylmethyl)-1H-tetrazol-5-yl)propyl)piperazin-1-yl)benzothiazole] | M (EC1.5-20 μM)
15 | CCC(c1nnnn1Cc1cccs1)N1CCN(c2nc3cc(N)ccc3s2)CC1 (stereo not shown) [Compound 29, 5-amino-2-(4-(1-(1-(thiophen-2-ylmpthyl)-1H-tetrazol-5-yl)propyl)piperazin-1-yl)benzothiazole] | H (EC1.5<5 μM)
16 | CCC(c1nnnn1Cc1cccs1)N1CCN(c2nc3c(F)cccc3s2)CC1 (stereo not shown) [Compound 30, 4-fluoro-2-(4-(1-(1-(thiophen-2-ylmethyl)-1H-tetrazol-5-yl)propyl)piperazin-1-yl)benzothiazole] | H (EC1.5<5 μM)

Row | Structure (SMILES) | Activity (EC1.5)
17 | CCC(c1nnnn1Cc1cccs1)N1CCN(c2nc3ccc(C(=O)OC)cc3s2)CC1 (stereo not shown) [Compound 31, methyl 2-(4-(1-(1-(thiophen-2-ylmethyl)-1H-tetrazol-5-yl)propyl)piperazin-1-yl)benzothiazole-6-carboxylate] | L (EC1.5 20-50 μM)
18 | CCC(c1nnnn1Cc1cccs1)N1CCN(c2nc3ccc(C(=O)O)cc3s2)CC1 (stereo not shown) [Compound 32, 2-(4-(1-(1-(thiophen-2-ylmethyl)-1H-tetrazol-5-yl)propyl)piperazin-1-yl)benzothiazole-6-carboxylic acid] | L (EC1.5 20-50 μM)
19 | O=C(c1nnnn1Cc1cccs1)N1CCN(c2nc3cccc(F)c3s2)CC1 [Compound 33, (4-(7-fluorobenzothiazol-2-yl)piperazin-1-yl)(1-(thiophen-2-ylmethyl)-1H-tetrazol-5-yl)methanone] | L (EC1.5 20-50 μM)
20 | CCC(c1nnnn1Cc1cccs1)N1CCN(c2nc3cccc(Br)c3s2)CC1 (stereo not shown) [Compound 34, 7-bromo-2-(4-(1-(1-(thiophen-2-ylmethyl)-1H-tetrazol-5-yl)propyl)piperazin-1-yl)benzothiazole] | L (EC1.5 20-50 μM)
21 | CCC(c1nnnn1Cc1cccs1)N1CCN(c2nc3cccc(C(=O)OC)c3s2)CC1 (stereo not shown) [Compound 35, Methyl 2-(4-(1-(1-(thiophen-2-ylmethyl)-1H-tetrazol-5-yl)propyl)piperazin-1-yl)benzothiazole-7-carboxylate] | L (EC1.5 20-50 μM)
22 | CCC(c1nnnn1Cc1cccs1)N1CCN(c2nc3cccc(C(=O)O)c3s2)CC1 (stereo not shown) [Compound 36, 2-(4-(1-(1-(thiophen-2-ylmethyl)-1H-tetrazol-5-yl)propyl)piperazin-1-yl)benzothiazole-7-carboxylic acid] | L (EC1.5 20-50 μM)
23 | CCC(c1nnnn1Cc1cccs1)N1CCN(c2nc3cccc(O)c3s2)CC1 (stereo not shown) [Compound 37, 7-hydroxyl-2-(4-(1-(1-(thiophen-2-ylmethyl)-1H-tetrazol-5-yl)propyl)piperazin-1-yl)benzothiazole] | L (EC1.5 20-50 μM)
24 | CCC(C(=O)NCc1cccs1)c1ccc(-c2nc3ccccc3s2)cc1 (stereo not shown) [Compound 38, 2-(4-(benzothiazol-2yl)phenyl)-N-(thiophen-2-ylmethyl)butanamide] | M (EC1.5-20 μM)
25 | CCC(C(=S)NCc1cccs1)c1ccc(-c2nc3ccccc3s2)cc1 (stereo not shown) [Compound 39, 2-(4-(benzothiazol-2-yl)phenyl)-N-(thiophen-2-ylmethyl)butanethioamide] | M (EC1.5-20 μM)
26 | CCC(c1ccc(-c2nc3ccccc3s2)cc1)c1nnnn1Cc1cccs1 (stereo not shown) [Compound 40, 2-(4-(1-(1-(thiophen-2-ylmethyl)-1H-tetrazol-5-yl)propyl)phenyl)benzothiazole] | M (EC1.5-20 μM)
27 | CCC(c1nnnn1CCc1cccs1)N1CCN(c2nc3cccc(F)c3s2)CC1 (stereo not shown) [Compound 41, 7-fluoro-2-(4-(1-(1-(2-(thiophen-2-yl)ethyl)-1H-tetrazol-5-yl)propyl)piperazin-1-yl)benzothiazole] | L (EC1.5 20-50 μM)
28 | CCC(c1nnnn1Cc1cncs1)N1CCN(c2nc3cccc(F)c3s2)CC1 (stereo not shown) [Compound 42, 7-fluoro-2-(4-(1-(1-(thiazol-5-ylmethyl)-1H-tetrazol-5-yl)propyl)piperazin-1-yl)benzothiazole] | L (EC1.5 20-50 μM)
29 | CCC(c1nnnn1Cc1cccs1)N1CCN(Cc2nc3ccccc3s2)CC1 (stereo not shown) [Compound 43, 2-((4-(1-(1-(thiophen-2-ylmethyl)-1H-tetrazol-5-yl)propyl)piperazin-1-yl)methyl)benzothiazole] | L (EC1.5 20-50 μM)
30 | CCC(c1nnnn1Cc1cccs1)N1CCN(c2nc3c(F)cc(F)cc3s2)CC1 (stereo not shown) [Compound 44, 4,6-difluoro-2-(4-(1-(1-(thiophen-2-ylmethyl)-1H-tetrazol-5-yl)propyl)piperazin-1-yl)benzothiazole] | M (EC1.5-20 μM)
31 | CCC(c1nnnn1Cc1cccs1)N1CCN(c2nc3cc([N+](=O)[O-])cc(F)c3s2)CC1 (stereo not shown) [Compound 45, 7-fluoro-5-nitro-2-(4-(1-(1-(thiophen-2-ylmethyl)-1H-tetrazol-5-yl)propyl)piperazin-1-yl)benzothiazole] | L (EC1.5 20-50 μM)
